# Paper PMC7876056, “Population Pharmacokinetic Analysis of Yimitasvir in Chinese Healthy Volunteers and Patients With Chronic Hepatitis C Virus Infection” (Frontiers in Pharmacology, 2021)
# Read-outs that look alike come from different tables or passages of the source.
# Columns and labels:
# [1] = Simulation of steady state exposure from the final population PK model (sensitive plot); assay type: in vivo, human; conditions: for AUC / Cmax: human, plasma, oral, 100 mg, 100 mg once daily for 12 weeks
# Protocol: Individual empirical Bayes estimates PK parameters from the final model were used to predict the steady state exposure of yimitasvir. The simulated dosing regimen was yimitasvir 100 mg once daily for 12 consecutive weeks. […] The steady state exposure was calculated using PK parameters with incorporation of the isolated effect from the covariate and with other unaffected PK parameters fixed to the typical value.
# [2] = Phase 1b study in patients with chronic HCV genotype 1 infection; assay type: in vivo, human; conditions: evening after dinner for more than 4 h
# Protocol: Yimitasvir is a novel, oral HCV non-structural protein 5A (NS5A) inhibitor for the treatment of chronic HCV genotype 1 infection in combination with sofosbuvir. The pharmacokinetic profile of yimitasvir has been evaluated in healthy volunteers and patients with chronic HCV infection ([Zhang et al., 2018]; [Zhao et al., 2019]). Following fasted single oral dose of yimitasvir in healthy volunteers, yimitasvir was absorbed with a peak concentration (Cmax) 3.5–4.0 h post-dose. […] Yimitasvir was approximately 79.2–86.6% bound to human plasma proteins and the binding was independent of drug concentration over the range of 100–2000 ng ml^−1. No metabolism of yimitasvir was detected in vitro during incubations with hepatic microsomes from mice, rats, dogs, monkeys and humans. […] Steady state was achieved by day 5 following the once daily dosing regimen. […] Yimitasvir is a substrate and inhibitor of the drug transporter P-glycoprotein (P-gp).
# The current population PK analysis of yimitasvir was performed using rich and sparse PK samples collected from six clinical pharmacology trials [4 phase 1 ([Zhao et al., 2019]), 1 phase 1b ([Zhang et al., 2018]) and 1 phase 2 studies] in Chinese healthy volunteers and HCV-infected patients. […]
# [3] = cited from earlier work
# [4] = design: method as in Zhang et al., 2018; conditions: patients, ref Zhang et al., 2018, cited from earlier work
# human plasma proteins = conditions: independent of drug concentration over 100–2000 ng ml^−1; cited from earlier work
# [5] = mice; cited from earlier work
# [6] = rats; cited from earlier work
# [7] = humans; cited from earlier work
# P-glycoprotein (P-gp) = conditions: cited from earlier work
# [8] = system: cytochrome P450 (CYP) 2C8; conditions: cited from earlier work
# CYP 1A2 = conditions: cited from earlier work
# CYP 2B6 = conditions: cited from earlier work
# CYP 2C9 = conditions: cited from earlier work
# CYP 2C19 = conditions: cited from earlier work
# CYP 2D6 = conditions: cited from earlier work
# CYP3A4 = conditions: cited from earlier work
# [9] = cited from earlier work; remark: listed apart in the source
# [10] = in the evening after dinner more than 4 h
# [11] = high-fat meal, food effect study, ref Zhao et al., 2019
smiles,measurement,setting,value
COC(=O)NC(C(=O)N1CCCC1c1ncc(-c2ccc(-c3ccc(-c4ccc5nc(C6CCCN6C(=O)C(NC(=O)OC)C(C)C)[nH]c5c4)c4c3C3CCC4C3)cc2)[nH]1)C(C)C (centres unmarked) [yimitasvir],"Decrease in Cmax,ss","[1]; after a high-fat meal, model simulated",58.9%
same,Magnitude of ALT on the steady-state exposure,[1]; healthy volunteers with extreme ALT values (5th and 95th percentiles) relative to typical,~30%
same,AUC,"[1]; empirical Bayes estimates, lower end of range, read-out: AUCss, 5th percentile of the population",3260 ng·h/mL
same,AUC,"[1]; empirical Bayes estimates, upper end of range, read-out: AUCss, 95th percentile of the population",17400 ng·h/mL
same,Cmax,"[1]; lower end of range, read-out: Cmax,ss, 5th percentile of the population",182 ng/mL
same,Cmax,"[1]; upper end of range, read-out: Cmax,ss, 95th percentile of the population",1270 ng/mL
same,Decrease in AUCss,[1]; [10],28.9%
same,"Decrease in Cmax,ss",[1]; [10],46.1%
same,"Decrease in Ctrough,ss",[1]; [10],10.0%
same,"Steady state exposures (AUCss, Ctrough,ss, Cmax,ss) higher in female than male subjects",[1]; in vivo,15.1–54.0%
same,AUC,"[1]; male, typical subject: male, healthy volunteer, fasted 10 h, ALT=31.6 IU l^-1, read-out: AUCss, base",7250 ng·h/mL
same,Cmax,"[1]; male, typical subject: male, healthy volunteer, fasted 10 h, ALT=31.6 IU l^-1, read-out: Cmax,ss, base",540 ng/mL
same,Difference in exposures between patients and healthy volunteers,[1]; steady state,no difference in exposures
same,"Decrease in Ctrough,ss",[1]; with a high-fat meal,3.52%
same,AUC decrease compared to phase 1 SAD trial,[2],40%
same,Decrease in AUC,[3]; [11],~50%
same,Decrease in Cmax,[3]; [11],~63%
same,Tmax,"[3]; high-fat meal, ref Zhao et al., 2019",5 to 12 h
same,Terminal half-life (t1/2),"[3]; human, in vivo",13.4 to 19.7 h
same,Dose proportionality of exposure,"[3]; multiple ascending dose study, 100–400 mg once daily for seven days",less than dose-proportional
same,Steady state achieved,[3]; once daily dosing regimen,≤ 5 days
same,Accumulation ratio,[3]; once daily dosing,1.32–1.34
same,Major route of elimination,"[3]; ref Zhao et al., 2019",fecal excretion of parent drug
same,Dose proportionality of AUC and Cmax,"[3]; single ascending dose study, healthy volunteers, ref Zhao et al., 2019",increased less than proportionally
same,Recovered in urine as the parent drug,"[3]; through 7 days post-dose, ref Zhao et al., 2019",Less than 0.04%
same,Dose proportionality of exposure,[4]; 30 to 200 mg administered during the night (4 h after dinner),near dose-proportional increase in exposure
same,Median time to peak concentration (Tmax),[4]; evening after dinner for more than 4 h,4 to 12 h
same,Bound to human plasma proteins,human plasma proteins,79.2–86.6%
same,Metabolism in hepatic microsomes,[5],No metabolism
same,Metabolism in hepatic microsomes,[6],No metabolism
same,Metabolism in hepatic microsomes,[7],No metabolism
same,P-gp inhibition,P-glycoprotein (P-gp),inhibitor
same,P-gp substrate,P-glycoprotein (P-gp),substrate
same,Inhibition of CYP2C8,[8],weak inhibitor
same,Inhibition of CYP1A2,CYP 1A2,does not inhibit
same,Inhibition of CYP2B6,CYP 2B6,does not inhibit
same,Inhibition of CYP2C9,CYP 2C9,does not inhibit
same,Inhibition of CYP2C19,CYP 2C19,does not inhibit
same,Inhibition of CYP2D6,CYP 2D6,does not inhibit
same,Induction of CYP3A4,CYP3A4,may be a weak inducer
same,Solubility profile,[9],pH-dependent solubility profile
